The source of these data is article PMC6709497, “Identification of Novel Trypanosoma cruzi Proteasome Inhibitors Using a Luminescence-Based High-Throughput Screening Assay” (Antimicrobial Agents and Chemotherapy, 2019).

The test system of one data set is T. cruzi proteasome. Put plainly: Kinetic-parameter (Km) determination for chymotrypsin-like substrate. The settings on record: 95% CI = 78.8 to 108.4 μM; 60-min reaction; n = 3; read-out: apparent steady-state Km. Format: biochemical, Trypanosoma cruzi. As to the method: Assay linearity and the optimal amount of T. cruzi proteasome for screening was determined by first serially diluting (1 in 2; CMF = 0.5) the proteasome stock solution in proteasome buffer to generate 10 additional concentrations. Next, 4 μl of each of the T. cruzi proteasome solutions was added to 4 μl of the luciferin detection and Proteasome-Glo chymotrypsin-like reagent mixture. Luminescence was read immediately and then every 90 s for 75 min. Data were acquired from 5 technical replicates (n = 5). To calculate the Michaelis constant (Km) and identify the optimal amount of chymotrypsin-like suc-Leu-Leu-Val-Tyr-aminoluciferin substrate for screening, the Proteasome-Glo chymotrypsin-like assay (Promega; catalogue no. G8622) luciferin detection reagent (comprising luciferase enzyme in Proteasome-Glo buffer) was prepared according to the manufacturers’ protocol ([29]). A 1,200 μM solution (600 μM final assay concentration) of the substrate was prepared and subsequently serially diluted (1 in 2; CMF = 0.5) using the luciferin detection reagent to generate 8 additional concentrations. Next, 4 μl of each of the luciferin detection and substrate solution mixtures was added to 4 μl of partially purified T. cruzi proteasome that was diluted 1 in 4 (CMF = 0.25) from the original stock using proteasome buffer. Luminescence was read immediately and then every 90 s for 75 min. […]

Data set [1] relates to proteasome chymotrypsin-like activity. Further details: method as in PMID 25308265. The conditions noted are these: similar assay platform in a cellular system; read-out: Km, approximate value; cited from earlier work.
In data set [2] the target is T. cruzi proteasome trypsin-like activity (Trypanosoma cruzi, UniProt V5BCU3+V5BGL9). Nature of the data set: Cell-free T. cruzi proteasome trypsin-like activity luminescence assay. Format: biochemical. The settings on record: n = 4; 15 μM Z-Leu-Arg-Arg-aminoluciferin. From the text:
The commercially available Proteasome-Glo 3-substrate system and chymotrypsin-like assay kits (Promega; catalogue no. G8531 and G8622, respectively) were assembled according to the manufacturers’ protocols ([29]) unless otherwise stated. Briefly, Proteasome-Glo buffer was used to formulate the luciferin detection reagent (containing a recombinant thermostable luciferase enzyme) to approximately 0.35% (wt/vol) final assay concentration. The luciferin detection reagent was then mixed with Proteasome-Glo trypsin-, caspase-, or chymotrypsin-like reagents (comprising 15 μM Z-Leu-Arg-Arg-aminoluciferin (Z is benzyloxycarbonyl), 20 μM Z-Nle-Pro-Nle-Asp-aminoluciferin, or 20 μM suc-Leu-Leu-Val-Tyr-aminoluciferin substrate, respectively, at final assay concentrations), and the mixture was allowed to incubate at room temperature for 60 min prior to use. T. cruzi proteasome buffer comprised 50 mM Tris-HCl, pH 7.5, 10 mM sucrose, 5 mM MgCl2, 1 mM dithiothreitol, 2 mM ATP, 150 mM NaCl, 1 mM EDTA, and 0.05 mg/ml bovine serum albumin (BSA). […] Biochemical cell-free assays were performed in an 8-μl final assay volume using 384-well white low-volume plates (Greiner; catalogue no. 784904), and cellular assays were performed in a 50-μl final assay volume using 384-well standard volume plates (Greiner; catalogue no. 781098). Luminescence was read using an EnVision 2102 Multilabel Reader (PerkinElmer, USA) with 0.2-s per well reading time, unless otherwise specified. DMSO or compound was added to the assay plates using Echo acoustic dispensers (Labcyte, USA). […] Z factor values were calculated using the following equation: Z factor = 1 − ({3 × [1.483 × (RLU MAD Max)]} + {3 × [1.483 × (RLU MAD Min)]})/(median RLU Max − median RLU Min), where MAD is the median absolute deviation, Max is the maximum-effect control samples, and Min is the minimum-effect control samples.
Next, 4 μl of luciferin detection and Proteasome-Glo chymotrypsin-, caspase-, or trypsin-like reagent mixtures were added to initiate the biochemical reaction. The reaction was allowed to proceed at room temperature for 60 min, after which the luminescence was read. […] Relative luminescence unit (RLU) data were normalized to percent inhibition values relative to 100% effect (DMSO, 1% [vol/vol] final assay concentration in the absence of T. cruzi proteasome enzyme) and 0% effect (DMSO, 1% [vol/vol] final assay concentration with T. cruzi proteasome enzyme) control populations using Microsoft Excel 2013 software. IC50 values were calculated by fitting the concentration-response data for each independent replicate separately to either a four-parameter logistic model or a seven-parameter logistic model with the bottom curve plateau parameter constrained to zero, as shown below. […]

Data set [3] has as its target T. cruzi proteasome caspase-like activity (Trypanosoma cruzi, UniProt V5BHX1). Put plainly: Cell-free T. cruzi proteasome caspase-like activity luminescence assay. Format: biochemical. The settings on record: n = 4; 20 μM Z-Nle-Pro-Nle-Asp-aminoluciferin. The text has this:
(§1) The commercially available Proteasome-Glo 3-substrate system and chymotrypsin-like assay kits (Promega; catalogue no. G8531 and G8622, respectively) were assembled according to the manufacturers’ protocols ([29]) unless otherwise stated. Briefly, Proteasome-Glo buffer was used to formulate the luciferin detection reagent (containing a recombinant thermostable luciferase enzyme) to approximately 0.35% (wt/vol) final assay concentration. The luciferin detection reagent was then mixed with Proteasome-Glo trypsin-, caspase-, or chymotrypsin-like reagents (comprising 15 μM Z-Leu-Arg-Arg-aminoluciferin (Z is benzyloxycarbonyl), 20 μM Z-Nle-Pro-Nle-Asp-aminoluciferin, or 20 μM suc-Leu-Leu-Val-Tyr-aminoluciferin substrate, respectively, at final assay concentrations), and the mixture was allowed to incubate at room temperature for 60 min prior to use. T. cruzi proteasome buffer comprised 50 mM Tris-HCl, pH 7.5, 10 mM sucrose, 5 mM MgCl2, 1 mM dithiothreitol, 2 mM ATP, 150 mM NaCl, 1 mM EDTA, and 0.05 mg/ml bovine serum albumin (BSA). T. cruzi strain Silvio X10/7 epimastigotes were maintained in vitro at 28°C in RTH-fetal calf serum (FCS) culture medium (RPMI 1640 supplemented with 0.4% Trypticase peptone, 0.017 M HEPES, 25 μM hemin, 10% heat-inactivated FCS). Biochemical cell-free assays were performed in an 8-μl final assay volume using 384-well white low-volume plates (Greiner; catalogue no. 784904), and cellular assays were performed in a 50-μl final assay volume using 384-well standard volume plates (Greiner; catalogue no. 781098). Luminescence was read using an EnVision 2102 Multilabel Reader (PerkinElmer, USA) with 0.2-s per well reading time, unless otherwise specified. DMSO or compound was added to the assay plates using Echo acoustic dispensers (Labcyte, USA). Reagent addition for high-throughput screening assays was performed using an Xrd-384 liquid dispenser (FluidX, United Kingdom) and a BioFill Solo/Xrd-384 8-channel resin nozzle (0.5- to 200-μl) tubing cartridge (FluidX; catalogue no. 34-1003). Data analysis was performed using SigmaPlot 12.5 software unless otherwise stated. Z factor values were calculated using the following equation: Z factor = 1 − ({3 × [1.483 × (RLU MAD Max)]} + {3 × [1.483 × (RLU MAD Min)]})/(median RLU Max − median RLU Min), where MAD is the median absolute deviation, Max is the maximum-effect control samples, and Min is the minimum-effect control samples.
(§2) Next, 4 μl of luciferin detection and Proteasome-Glo chymotrypsin-, caspase-, or trypsin-like reagent mixtures were added to initiate the biochemical reaction. The reaction was allowed to proceed at room temperature for 60 min, after which the luminescence was read. Data were acquired from 4 independent replicates (n = 4). Relative luminescence unit (RLU) data were normalized to percent inhibition values relative to 100% effect (DMSO, 1% [vol/vol] final assay concentration in the absence of T. cruzi proteasome enzyme) and 0% effect (DMSO, 1% [vol/vol] final assay concentration with T. cruzi proteasome enzyme) control populations using Microsoft Excel 2013 software. IC50 values were calculated by fitting the concentration-response data for each independent replicate separately to either a four-parameter logistic model or a seven-parameter logistic model with the bottom curve plateau parameter constrained to zero, as shown below.
The four-parameter logistic model is as follows: y=Min+Max−Min/1+(x/IC50)^−Hillslope […]

The test system of data set [4] is T. cruzi strain Silvio X10/7 epimastigotes. Nature of the data set: Cellular T. cruzi epimastigote viability assay. Format: cell-based, Trypanosoma cruzi. The settings on record: 96 h; for EC50: Trypanosoma cruzi, read-out: Cellular pEC50 ± SD (converted). As to the method:
For the cell viability readout, BacTiter-Glo microbial cell viability reagent (Promega; catalogue no. G8230) was added to each well (25 μl) and incubated at room temperature for 5 min. The plates were then sealed with clear film, and the luminescence was read using a Victor 3 (PerkinElmer, USA) or Pherastar FS (BMG Labtech, Germany) plate reader with a 0.5-s per well reading time. Data for epoxomicin were obtained from three independent replicates (n = 3), and data for all the remaining compounds were acquired from four independent replicates (n = 4). RLU data were normalized to percent inhibition values relative to 100% effect (Nifurtimox) and 0% effect (DMSO; 1% [vol/vol] final assay concentration) control populations. Normalized data for each independent replicate were fitted separately to a four-parameter logistic regression model, and pEC50 {i.e., −log(EC50[M])} values were calculated using IBDS ActivityBase 8.1.2.12 software, after which a mean pEC50 value for each compound was calculated.

Data set [5] addresses T. cruzi proteasome chymotrypsin-like activity (Trypanosoma cruzi, UniProt V5BU39). Put plainly: Cell-free T. cruzi proteasome chymotrypsin-like activity luminescence assay (commercial inhibitors). Format: biochemical.
From the text: as §1, with “T. cruzi strain Silvio X10/7 epimastigotes were maintained in vitro at 28°C in RTH-fetal calf serum (FCS) culture medium (RPMI 1640 supplemented with 0.4% Trypticase peptone, 0.017 M HEPES, 25 μM hemin, 10% heat-inactivated FCS).” left out
as §2
The four-parameter logistic model is as follows: y=Min+Max−Min/1+(x/IC50)^−Hillslope
The seven-parameter logistic model is as follows: y=(Max_1+{Min−Max_1/1+[(x/IC50_1)^Hillslope_1]})+(Max_2−{Max_2/1+[(x/IC50_2)^Hillslope_2]}) […]

Details of data set [6]: method as in PMID 28645201. The conditions noted are these: cited from earlier work.
Where [7] appears, read: BacTiter-Glo viability readout, n = 4 (epoxomicin n = 3).

Like-named read-outs stand apart in the source and are kept apart here. Starred links: 1 amine or outer side, 2 acyl side, 3 side chain; linkers in the order of their positions; H or OH if unused. Non-standard residues stand in square brackets, D forms with d. Residues, ends and D or L forms follow the SMILES beside them. ξ: configuration not given here. *: point of attachment. aminoluciferin = aminoluciferin attached at the C-terminus (luminogenic reporter), O=C(O)[C@H]1CSC(c2nc3ccc(N*)cc3s2)=N1; Suc = O=C(CCC(=O)[*:2])[*:1]; Nva = CCC[C@H](N)C(=O)O; Cbz = O=C(OCc1ccccc1)*; ξL = CC(C)CC(N)C(=O)O

Chain of T. cruzi proteasome caspase-like activity (V5BHX1 entry or part of it): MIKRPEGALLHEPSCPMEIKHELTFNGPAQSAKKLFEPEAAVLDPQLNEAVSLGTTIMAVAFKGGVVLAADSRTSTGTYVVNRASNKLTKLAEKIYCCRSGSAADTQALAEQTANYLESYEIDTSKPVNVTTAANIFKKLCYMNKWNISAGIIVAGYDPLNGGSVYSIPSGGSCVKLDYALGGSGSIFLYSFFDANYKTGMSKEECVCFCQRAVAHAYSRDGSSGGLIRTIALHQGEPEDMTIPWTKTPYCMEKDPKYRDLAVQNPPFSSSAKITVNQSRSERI
Chain of T. cruzi proteasome chymotrypsin-like activity (V5BU39 entry or part of it): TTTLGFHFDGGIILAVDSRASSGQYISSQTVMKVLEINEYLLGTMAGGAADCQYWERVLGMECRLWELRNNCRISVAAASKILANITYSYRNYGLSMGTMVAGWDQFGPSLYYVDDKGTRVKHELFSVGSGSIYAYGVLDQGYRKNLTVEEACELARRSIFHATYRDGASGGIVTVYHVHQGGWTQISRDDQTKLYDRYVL
Chain of T. cruzi proteasome chymotrypsin-like activity (A0A2V2VW62 entry or part of it, further chain): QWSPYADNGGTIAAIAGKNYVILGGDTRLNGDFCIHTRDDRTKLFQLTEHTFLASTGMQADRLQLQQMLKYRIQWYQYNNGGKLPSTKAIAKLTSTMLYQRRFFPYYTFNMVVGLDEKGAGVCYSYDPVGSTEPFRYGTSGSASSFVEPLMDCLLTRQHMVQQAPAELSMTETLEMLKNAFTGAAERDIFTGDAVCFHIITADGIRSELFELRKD
Chain of T. cruzi proteasome chymotrypsin-like activity (V5C017 entry or part of it, further chain): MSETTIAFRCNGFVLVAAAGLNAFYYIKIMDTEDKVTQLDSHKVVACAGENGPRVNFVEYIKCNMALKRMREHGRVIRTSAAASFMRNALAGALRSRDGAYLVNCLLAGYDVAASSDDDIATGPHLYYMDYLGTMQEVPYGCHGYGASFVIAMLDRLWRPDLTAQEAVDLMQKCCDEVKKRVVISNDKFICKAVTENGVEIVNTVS
Chain of T. cruzi proteasome trypsin-like activity (V5BGL9 entry or part of it): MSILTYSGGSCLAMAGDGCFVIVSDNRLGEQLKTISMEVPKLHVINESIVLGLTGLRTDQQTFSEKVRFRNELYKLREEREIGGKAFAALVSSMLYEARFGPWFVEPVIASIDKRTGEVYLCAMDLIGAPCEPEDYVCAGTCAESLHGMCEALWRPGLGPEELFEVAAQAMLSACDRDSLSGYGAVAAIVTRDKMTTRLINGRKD
Chain of T. cruzi proteasome trypsin-like activity (V5BCU3 entry or part of it): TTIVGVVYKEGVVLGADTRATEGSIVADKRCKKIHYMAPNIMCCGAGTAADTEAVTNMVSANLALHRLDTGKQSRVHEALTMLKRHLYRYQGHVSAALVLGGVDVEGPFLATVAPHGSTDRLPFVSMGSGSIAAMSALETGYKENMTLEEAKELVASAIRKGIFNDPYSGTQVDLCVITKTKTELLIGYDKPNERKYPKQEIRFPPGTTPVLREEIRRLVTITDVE

In the case of “succinyl-Leu-Leu-Val-Tyr-aminoluciferin (Suc-LLVY-aminoluciferin; SMILES CC(C)C[C@H](NC(=O)CCC(=O)O)C(=O)N[C@@H](CC(C)C)C(=O)N[C@H](C(=O)N[C@@H](Cc1ccc(O)cc1)C(=O)Nc1ccc2nc(C3=N[C@@H](C(=O)O)CS3)sc2c1)C(C)C) [suc-Leu-Leu-Val-Tyr-aminoluciferin, luminogenic chymotrypsin-like peptide substrate]”, the figures for the Km (in the data set with T. cruzi proteasome; in data set [1]) were 93.5 µM and roughly 60 µM, respectively.
On to `CC[C@H](C)[C@H](NC(=O)[C@H]([C@@H](C)CC)N(C)C(C)=O)C(=O)N[C@H](C(=O)N[C@@H](CC(C)C)C(=O)[C@@]1(C)CO1)[C@@H](C)O` [Epoxomicin, epoxomicin], for which the “Cell-free pIC50 ± SD, Trypsin-like” value in data set [2] turned out to be 6.10 ± 0.06 M. For the same molecule, in data set [3], the “Cell-free pIC50 ± SD, Caspase-like” value is 5.85 ± 0.05 M. Moreover, in data set [4], the EC50 was 0.0631 µM.
Consider oprozomib, for which the “Cellular pEC50 ± SD” value in data set [4] (setting [7]) is recorded as 6.53 ± 0.32 M.
Turning to `CC(C)C[C@H](NC(=O)CNC(=O)c1cc(Cl)ccc1Cl)B(O)O` [Ixazomib, ixazomib], in data set [5], the “chymotrypsin-like activity dose-response curve shape” value is on record as “biphasic”. Further, the “Cell-free pIC50 ± SD, Trypsin-like” value in data set [2] was determined as 5.51 ± 0.07 M. In addition, the “Cell-free pIC50 ± SD, Caspase-like” value in data set [3] came out at 7.49 ± 0.17 M. In addition, in data set [4] (setting [7]), the EC50 is 0.708 µM.
In the case of `O=C(Cn1ccnc1[N+](=O)[O-])NCc1ccccc1` [Benznidazole, benznidazole], the “treatment discontinuation rate due to side effects” value in data set [6] is given as 10%.
With `CCC[C@@H](C=O)NC(=O)C(CC(C)C)NC(=O)[C@H](CC(C)C)NC(=O)OCc1ccccc1` (stereo partly drawn) [MG115] (Cbz-Leu-[ξL]-[Nva]-aldehyde), the “Cell-free pIC50 ± SD, Trypsin-like” value in data set [2] stood at 4.87 ± 0.09 M. In addition, the “Cell-free pIC50 ± SD, Caspase-like” value in data set [3] stood at 4.91 ± 0.10 M. Further, the EC50 in data set [4] (setting [7]) is 4.37 µM.
Turning to `CC(C)C[C@H](NC(=O)[C@H](Cc1ccccc1)NC(=O)c1cnccn1)B(O)O` [Bortezomib, bortezomib], the “chymotrypsin-like activity dose-response curve shape” value in data set [5] is “biphasic”. Also, in data set [5] (concentration approximately equivalent to IC30, used for spiking test plates), the 30% effect concentration (IC30) (in general, the concentration at which the effect reaches the 30% level) was roughly 0.004 µM. For the same molecule, in data set [5] (concentration approximately equivalent to IC70, used for spiking test plates), the IC70 – broadly, the concentration needed for an effect of 70% – is roughly 0.079 µM. In addition, the “Cell-free pIC50 ± SD, Caspase-like” value in data set [3] is listed as 7.16 ± 0.13 M. Moreover, the EC50 in data set [4] (setting [7]) was 0.24 µM.
`CC(C)C[C@@H](C=O)NC(=O)[C@H](CC(C)C)NC(=O)[C@H](CC(C)C)NC(=O)OCc1ccccc1` [MG132] (Cbz-Leu-Leu-Leu-aldehyde): the “chymotrypsin-like activity dose-response curve shape” value in data set [5] is recorded as “biphasic”. In addition, the “Cell-free pIC50 ± SD, Trypsin-like” value in data set [2] is 4.88 ± 0.14 M. Besides, the “Cell-free pIC50 ± SD, Caspase-like” value in data set [3] is 6.01 ± 0.09 M. In addition, the EC50 in data set [4] was 2.45 µM.
